Experimental data as given in the NIST ThermoML archive (doi:10.1021/je600562n).
Several values for one entry are separate records, joined by “and”; a condition that tells them apart may be missing. Equal values may be shown once. Numbers after ± are expanded uncertainties.

Settings: Liquid; for mass density: Vibrating tube method; for viscosity: Vibrating wire viscometry

Q: Which mass density (298.15 K, 101.33 kPa) does the source give for `CC(C)CCCCCCCOC(=O)c1ccccc1C(=O)OCCCCCCCC(C)C` here?
A: 963.81 ± 0.97 kg/m3 [middle of 7 runs]

Q: And the viscosity (298.15 K, 101.33 kPa)?
A: 87.2 ± 1.9 mPa·s and 87.5 ± 2 mPa·s and 87.3 ± 2 mPa·s

Q: And the mass density (298.15 K, 5000 kPa)?
A: 962.8 ± 2.9 kg/m3

Q: And the mass density (298.15 K, 10000 kPa)?
A: 965.6 ± 2.9 kg/m3

Q: And the viscosity (298.15 K, 10000 kPa)?
A: 107.3 ± 2.5 mPa·s

Q: What about the mass density (298.15 K, 20000 kPa) of the same compound?
A: 970.8 ± 2.9 kg/m3

Q: What about the mass density (298.15 K, 30000 kPa) of the same compound?
A: 976 ± 2.9 kg/m3

Q: What about the mass density (298.15 K, 50000 kPa) of the same compound?
A: 985.5 ± 3 kg/m3

Q: What about the mass density (298.15 K, 70000 kPa) of the same compound?
A: 995.2 ± 3 kg/m3

Q: What about the viscosity (303.15 K, 101.33 kPa) of the same compound?
A: 64.6 ± 1.3 mPa·s

Q: And the viscosity (303.15 K, 10000 kPa)?
A: 78.5 ± 1.9 mPa·s

Q: And the viscosity (303.15 K, 20000 kPa)?
A: 98 ± 2.5 mPa·s

Q: What about the viscosity (303.15 K, 30000 kPa) of the same compound?
A: 120.9 ± 3.2 mPa·s

Q: What about the viscosity (308.15 K, 101.33 kPa) of the same compound?
A: 48.99 ± 1 mPa·s

Q: What about the viscosity (308.15 K, 10000 kPa) of the same compound?
A: 60.3 ± 1.3 mPa·s

Q: What about the viscosity (308.15 K, 20000 kPa) of the same compound?
A: 73.1 ± 1.7 mPa·s

Q: And the viscosity (308.15 K, 30000 kPa)?
A: 89 ± 2.2 mPa·s

Q: And the viscosity (308.15 K, 50000 kPa)?
A: 135.4 ± 3.6 mPa·s

Q: And the viscosity (313.15 K, 101.33 kPa)?
A: 37.74 ± 0.77 mPa·s

Q: What about the viscosity (313.15 K, 10000 kPa) of the same compound?
A: 46.5 ± 1 mPa·s

Q: And the viscosity (313.15 K, 20000 kPa)?
A: 57 ± 1.3 mPa·s

Q: What about the viscosity (313.15 K, 30000 kPa) of the same compound?
A: 68.1 ± 1.6 mPa·s

Q: And the viscosity (313.15 K, 50000 kPa)?
A: 100.1 ± 2.5 mPa·s

Q: And the mass density (323.15 K, 101.33 kPa)?
A: 945.64 ± 0.95 kg/m3 [middle of 7 runs]

Q: What about the viscosity (323.15 K, 101.33 kPa) of the same compound?
A: 23.85 ± 0.49 mPa·s and 23.84 ± 0.5 mPa·s

Q: What about the mass density (323.15 K, 5000 kPa) of the same compound?
A: 945.4 ± 2.9 kg/m3

Q: And the mass density (323.15 K, 10000 kPa)?
A: 948.5 ± 2.9 kg/m3

Q: And the viscosity (323.15 K, 10000 kPa)?
A: 29.24 ± 0.6 mPa·s

Q: And the mass density (323.15 K, 20000 kPa)?
A: 954.6 ± 2.9 kg/m3

Q: What about the viscosity (323.15 K, 20000 kPa) of the same compound?
A: 35.63 ± 0.8 mPa·s

Q: And the mass density (323.15 K, 30000 kPa)?
A: 960.4 ± 2.9 kg/m3

Q: What about the viscosity (323.15 K, 30000 kPa) of the same compound?
A: 42.46 ± 0.94 mPa·s

Q: And the mass density (323.15 K, 50000 kPa)?
A: 970.7 ± 2.9 kg/m3

Q: What about the viscosity (323.15 K, 50000 kPa) of the same compound?
A: 60.4 ± 1.3 mPa·s

Q: And the mass density (323.15 K, 70000 kPa)?
A: 980.1 ± 3 kg/m3

Q: What about the viscosity (323.15 K, 70000 kPa) of the same compound?
A: 80.6 ± 1.8 mPa·s

Q: What about the mass density (348.15 K, 101.33 kPa) of the same compound?
A: 927.68 ± 0.94 kg/m3 [middle of 7 runs]

Q: And the viscosity (348.15 K, 101.33 kPa)?
A: 9.71 ± 0.19 mPa·s and 9.72 ± 0.19 mPa·s and 9.71 ± 0.2 mPa·s

Q: What about the mass density (348.15 K, 5000 kPa) of the same compound?
A: 927.9 ± 2.8 kg/m3

Q: What about the mass density (348.15 K, 10000 kPa) of the same compound?
A: 931.3 ± 2.8 kg/m3

Q: And the viscosity (348.15 K, 10000 kPa)?
A: 11.55 ± 0.25 mPa·s

Q: And the mass density (348.15 K, 20000 kPa)?
A: 938 ± 2.8 kg/m3

Q: What about the viscosity (348.15 K, 20000 kPa) of the same compound?
A: 13.81 ± 0.3 mPa·s

Q: And the mass density (348.15 K, 30000 kPa)?
A: 944.1 ± 2.8 kg/m3

Q: And the viscosity (348.15 K, 30000 kPa)?
A: 15.93 ± 0.34 mPa·s

Q: What about the mass density (348.15 K, 50000 kPa) of the same compound?
A: 955.3 ± 2.9 kg/m3

Q: What about the viscosity (348.15 K, 50000 kPa) of the same compound?
A: 21.5 ± 0.5 mPa·s

Q: What about the mass density (348.15 K, 70000 kPa) of the same compound?
A: 965.7 ± 2.9 kg/m3

Q: What about the viscosity (348.15 K, 70000 kPa) of the same compound?
A: 28.86 ± 0.76 mPa·s

Q: And the mass density (363.15 K, 101.33 kPa)?
A: 917.07 ± 0.92 kg/m3 [middle of 6 runs]

Q: And the viscosity (363.15 K, 101.33 kPa)?
A: 6.39 ± 0.13 mPa·s

Q: What about the mass density (373.15 K, 101.33 kPa) of the same compound?
A: 907 ± 2.7 kg/m3

Q: And the viscosity (373.15 K, 101.33 kPa)?
A: 5.03 ± 0.1 mPa·s

Q: And the mass density (373.15 K, 5000 kPa)?
A: 911.1 ± 2.8 kg/m3

Q: What about the mass density (373.15 K, 10000 kPa) of the same compound?
A: 914.8 ± 2.8 kg/m3

Q: And the viscosity (373.15 K, 10000 kPa)?
A: 5.92 ± 0.12 mPa·s

Q: And the mass density (373.15 K, 20000 kPa)?
A: 922.1 ± 2.8 kg/m3

Q: And the viscosity (373.15 K, 20000 kPa)?
A: 6.96 ± 0.15 mPa·s

Q: What about the mass density (373.15 K, 30000 kPa) of the same compound?
A: 929 ± 2.8 kg/m3

Q: What about the viscosity (373.15 K, 30000 kPa) of the same compound?
A: 7.84 ± 0.17 mPa·s

Q: And the mass density (373.15 K, 50000 kPa)?
A: 941 ± 2.8 kg/m3

Q: And the viscosity (373.15 K, 50000 kPa)?
A: 10.33 ± 0.22 mPa·s

Q: What about the mass density (373.15 K, 70000 kPa) of the same compound?
A: 952.1 ± 2.9 kg/m3

Q: What about the viscosity (373.15 K, 70000 kPa) of the same compound?
A: 13.45 ± 0.32 mPa·s

Q: What about the viscosity (398.15 K, 101.33 kPa) of the same compound?
A: 3.043 ± 0.063 mPa·s

Q: What about the mass density (398.15 K, 5000 kPa) of the same compound?
A: 893.4 ± 2.7 kg/m3

Q: What about the mass density (398.15 K, 10000 kPa) of the same compound?
A: 898.8 ± 2.7 kg/m3

Q: And the viscosity (398.15 K, 10000 kPa)?
A: 3.601 ± 0.074 mPa·s

Q: And the mass density (398.15 K, 20000 kPa)?
A: 906.6 ± 2.7 kg/m3

Q: And the viscosity (398.15 K, 20000 kPa)?
A: 4.12 ± 0.09 mPa·s

Q: And the mass density (398.15 K, 30000 kPa)?
A: 913.5 ± 2.8 kg/m3

Q: And the viscosity (398.15 K, 30000 kPa)?
A: 4.741 ± 0.1 mPa·s

Q: What about the mass density (398.15 K, 50000 kPa) of the same compound?
A: 926 ± 2.8 kg/m3

Q: And the viscosity (398.15 K, 50000 kPa)?
A: 5.98 ± 0.13 mPa·s

Q: And the mass density (398.15 K, 70000 kPa)?
A: 938.9 ± 2.8 kg/m3

Q: What about the viscosity (398.15 K, 70000 kPa) of the same compound?
A: 7.64 ± 0.17 mPa·s

Q: What about the viscosity (423.15 K, 101.33 kPa) of the same compound?
A: 2.052 ± 0.042 mPa·s

Q: What about the mass density (423.15 K, 5000 kPa) of the same compound?
A: 877.5 ± 2.7 kg/m3

Q: And the mass density (423.15 K, 10000 kPa)?
A: 881.6 ± 2.7 kg/m3

Q: And the viscosity (423.15 K, 10000 kPa)?
A: 2.401 ± 0.052 mPa·s

Q: And the mass density (423.15 K, 20000 kPa)?
A: 890.4 ± 2.7 kg/m3

Q: What about the viscosity (423.15 K, 20000 kPa) of the same compound?
A: 2.707 ± 0.058 mPa·s

Q: And the mass density (423.15 K, 30000 kPa)?
A: 898.6 ± 2.7 kg/m3

Q: What about the viscosity (423.15 K, 30000 kPa) of the same compound?
A: 3.001 ± 0.065 mPa·s

Q: What about the mass density (423.15 K, 50000 kPa) of the same compound?
A: 912.6 ± 2.8 kg/m3

Q: What about the viscosity (423.15 K, 50000 kPa) of the same compound?
A: 3.857 ± 0.082 mPa·s

Q: And the mass density (423.15 K, 70000 kPa)?
A: 926.7 ± 2.8 kg/m3

Q: And the viscosity (423.15 K, 70000 kPa)?
A: 4.826 ± 0.1 mPa·s
